The subject of series [1] is Mycobacterium tuberculosis H37Rv (ATCC 27294). In words: Primary screen, Microplate Alamar Blue Assay (MABA), percent inhibition. It counts as cell-based. The settings on record: Mycobacterium tuberculosis, Table 5; Alamar assay, primary screening at 6.25 μg/ml; read-out: % Inhib. Summed up:
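Single-concentration screen at 6.25 μg/ml (or molar equivalent of the heaviest congener in a series) against H37Rv grown in BACTEC 12B medium. Growth read by Microplate Alamar Blue Assay, reported as percent inhibition.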
A general note: The colour change of resazurin is a common sign of viable cells or microbes.

The test system of series [2] is Plasmodium falciparum chloroquine-susceptible strain D6. In words: In vitro antimalarial drug susceptibility assay (radiolabeled hypoxanthine incorporation), strain D6. It counts as cell-based. The settings on record: Plasmodium falciparum, D6, 66 h, read-out: Strain D6 IC50, growth inhibition, chloroquine-susceptible strain D6, 66 h incubation.
For series [3], the system named is D6 and W2 P. falciparum clones. It counts as cell-based, Plasmodium falciparum. As to conditions: IC50 (W2)/IC50 (D6) ratio.
A further series deals with M. tuberculosis H37Rv. In words: Minimum inhibitory concentration (MIC) in the MABA. The settings on record: Mycobacterium tuberculosis, H37RV, Table 5; Alamar assay, M. tuberculosis H37Rv; read-out: MIC. It counts as cell-based, Mycobacterium tuberculosis. Put shortly: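 Run under the NIAID TAACF screening program against M. tuberculosis by fluorescence read-out. MIC taken as the lowest concentration giving 90% reduction in fluorescence relative to controls.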

In series [4] the test system is Plasmodium falciparum chloroquine-resistant strain W2. Kind of series: microbe, parasite or virus in culture. In kind it is cell-based. As to conditions: Plasmodium falciparum, W2, 66 h, read-out: Strain W2 IC50, growth inhibition, chloroquine-resistant strain W2, 66 h incubation.
In series [5] the test system is 60 human tumor cell lines. In words: DTP Human Tumor Cell Line Screen, full panel. In kind it is cell-based. The settings on record: range over 60 cell lines, after 48 h, read-out: LC50 (the source's name). As to the method: In preliminary tests, four compounds (1B14a, 1C44, 1C45, and 1C46) were chosen by NIH-NCI for in vitro screening. See Drug discovery and development program, National Cancer Institute, Bethesda, (NCI), http://dtp.nci.nih.gov. All tetraoxanes were evaluated in the 3-cell line (lung—NCI-H460, breast—MCF7, CNS-SF-268) one dose primary anticancer assay: growth percentage after 48 hours, at 100 μM concentration of tested compound. Two compounds were eliminated at this step (1B14a and 1C46), while the acid 1C44 and primary amide 1C45 were evaluated against the full panel of 60 human tumor cell lines starting with 10^−4 M concentration of investigated compounds.
The activity of numerous compounds of the present invention against various cancer cell lines was submitted to the Developmental Therapeutics Program (DTP) at the National Cancer Institute (NCI) of the National Institutes of Health (NIH) for screening.
The DTP Human Tumor Cell Line Screen utilizes 60 different human tumor cell lines, representing leukemia, melanoma and cancers of the lung, colon, brain, ovary, breast, prostate, and kidney according to conventional methods known in the art. […]

Series [6] concerns standard panel of 12 tumor cell lines in hollow fibers (IP and SC implants). In words: Hollow Fiber Assay. In kind it is in vivo, mice. As to the method:
Generally, as a preliminary in vivo screening tool, the following assay is conducted. A standard panel of 12 tumor cell lines were used for the routine hollow fiber screening of the in vitro activities. These include NCI-H23, NCI-H522, MDA-MB-231, MDA-MB-435, SW-620, COLO 205, LOX, UACC-62, OVCAR-3, OVCAR-5, U251 and SF-295 according to conventional methods known in the art. See e.g. Hollingshead, M., et al. (1995) Life Sciences 57:131-141, which is herein incorporated by reference. The cell lines are cultivated in RPMI-1640 containing 10% FBS and 2 mM glutamine. On the day preceeding hollow fiber preparation, the cells are given a supplementation of fresh medium to maintain log phase growth. […] On the day of implantation, samples of each tumor cell line preparation are quantitated for viable cell mass by a stable endpoint MTT assay so that the time zero cell mass is known. […] The optical density of each sample is determined spectrophotometrically at 540 nm and the mean of each treatment group is calculated. The percent net growth for each cell line in each treatment group is calculated and compared to the percent net growth in the vehicle treated controls.
A 50% or greater reduction in percent net growth in the treated samples compared to the vehicle control samples is considered a positive result. […] A compound is referred for xenograft testing if it has a combined IP+SC score of 20 or greater, a SC score of 8 or greater, or produces cell kill of any cell line at either dose level evaluated.

The subject of series [7] is red blood cell (RBC) membrane. Kind of series: Hemolytic activity test. As to conditions: initial experiments.

Molecules are shown by their SMILES. In brackets after ≈: the same amount, converted by molar mass.

By IC50 is commonly meant the concentration needed to halve the response being measured. In general, MIC refers to the smallest concentration in the dilution series that meets the test's criterion for growth inhibition. Regarding `COC(=O)CCC(C)[C@H]1CCC2C3C(C[C@H](OC(C)=O)[C@@]21C)[C@@]1(C)CCC2(C[C@H]1C[C@H]3OC(C)=O)OOC1(CCCCCCC1)OO2` (stereo partly drawn) [8c/1B11, Methyl 7α,12α-diacetoxy-5β-cholan-24-oate-3-spiro-6′-(1′,2′,4′,5′-tetraoxacyclohexane)-3′-spirocyclooctane], the inhibition at 6.25 µg/mL in series [1] was found to be 0%. For the same molecule, the half-maximal inhibitory concentration (IC50) in series [2] amounted to 0.0321 µg/mL (≈ 0.0484 µM); in series [4], 0.0133 µg/mL (≈ 0.02 µM). Further, the “Resistance Index” value in series [3] worked out at 0.41. In addition, the MIC in the series with M. tuberculosis H37Rv is more than 6.25 µg/mL. The CC50 in series [5] was more than 100 µM.
For `CCCNC(=O)CCC(C)[C@H]1CCC2C3C(C[C@H](OC(C)=O)[C@@]21C)[C@@]1(C)CCC2(C[C@H]1C[C@H]3OC(C)=O)OOC1(CCCCC1)OO2` (stereo partly drawn) [11/1C20, N-(n-Propyl)-7α,12α-diacetoxy-5β-cholan-24-amide-3-spiro-6′-(1′,2′,4′,5′-tetraoxacyclohexane)-3′-spirocyclohexane], in series [6] (combined IP+SC, maximum possible 96), the “Total Score” value was determined as 20. In series [6] (intraperitoneal implants, agent by intraperitoneal injection at 2 dose levels, daily for 4 days), the IP score worked out at 18. The same molecule yielded an SC score in series [6] (subcutaneous implants) of 2. In addition, the inhibition at 6.25 µg/mL in series [1] was 88%. For the same molecule, the “red blood cell (RBC) membrane lysis” value in series [7] is on record as “no red blood cell (RBC) membrane lysis”. The half-inhibitory concentration (IC50) came out at 0.00977 µg/mL (≈ 0.0148 µM) in series [2] and 0.0045 µg/mL (≈ 0.0068 µM) in series [4]. Also, in series [3], the “Resistance Index” value came out at 0.46. Moreover, the MIC with M. tuberculosis H37Rv was more than 6.25 µg/mL.
